{"source": "PubChem BioAssay AID720512", "about": "(Broad Institute, 2013)", "note": "Calls of active or inactive are those of the source. The rule behind the calls is not given here.", "data": [{"target": "Toxin B (TcdB) glycohydrolase, Clostridioides difficile 630", "assay": "TcdB glycohydrolase inhibitors, dose response, biochemical, cherry-pick, plate reader (AID 720512)", "details": "recombinant TcdB glycohydrolase activity", "values": [{"molecule": "FC(F)(F)c1cc(CCN2CCNC[C@H]2Cc2cccc3ccccc23)cc(C(F)(F)F)c1", "AC50": "> 39 µM (inactive)"}, {"molecule": "CCNC(=O)C[C@H]1CC[C@@H]2[C@H](COc3ccc(NC(=O)c4ccc5c(c4)OCO5)cc3C(=O)N2C)O1", "AC50": "> 42 µM (inactive)"}, {"molecule": "CC(=O)N1CC[C@@H]2[C@@H](CO)N(C)c3ccc(-c4ccccc4)cc3[C@@H]21", "AC50": "> 42 µM (inactive)"}, {"molecule": "CCn1c(C)nc2cc(C(=O)N/N=C/c3ccc(OC)c(O)c3)ccc21", "AC50": "> 39 µM (inactive)"}, {"molecule": "CC(=O)Nc1cccc2cc(O)ccc12", "AC50": "> 39 µM (inactive)"}, {"molecule": "CC1=NCCc2c1[nH]c1cc(O)ccc21", "AC50": "9.94 µM"}, {"molecule": "Oc1ccc(CCc2ccccn2)cc1", "AC50": "> 39 µM (inactive)"}, {"molecule": "ONC(=Nc1ccccc1Cl)c1ccccc1Cl", "AC50": "> 39 µM (inactive)"}, {"molecule": "CN1/C(=C/C=C/c2n(C)c3cc([N+](=O)[O-])c([N+](=O)[O-])cc3[n+]2C)C(C)(C)c2ccccc21", "AC50": "> 39 µM (inactive)"}]}, {"target": "Toxin B (TcdB) glycohydrolase, Clostridioides difficile 630", "assay": "TcdB glycohydrolase inhibitors, dose response, biochemical, cherry-pick, plate reader (AID 720512)", "details": "recombinant TcdB glycohydrolase activity, at 19.5 µM (top of the series)", "values": [{"molecule": "COc1ccc(C(=O)Nc2ccc3c(c2)C(=O)N(C)[C@@H]2CC[C@H](CC(=O)NCC4CC4)O[C@@H]2CO3)cc1", "activity change, negative = inhibition": "inactive"}, {"molecule": "Cc1cccc(/C=C/c2onc(C)c2S(=O)(=O)N2CCC(C(=O)N3CCCCCC3)CC2)c1", "activity change, negative = inhibition": "inactive"}, {"molecule": "CC1C(c2ccc3c(c2)OCO3)c2cc3c(cc2OC1N1CCOCC1)OCO3", "note": "(configuration not stated)", "activity change, negative = inhibition": "inactive"}, {"molecule": "O=C(c1cn(-c2ccccc2)nc1-c1ccncc1)n1nnc2ccccc21", "activity change, negative = inhibition": "inactive"}, {"molecule": "COc1ccc(C(=O)N2CCOCC2)cc1S(=O)(=O)N1CCCc2ccccc21", "activity change, negative = inhibition": "inactive"}, {"molecule": "CCOC(=O)Cn1c(C(F)(F)F)nc2nc(Cl)c(Cl)nc21", "activity change, negative = inhibition": "inactive"}, {"molecule": "CCOc1ccccc1-n1c(C)nc2cc(C(=O)O)ccc21", "activity change, negative = inhibition": "inactive"}, {"molecule": "O=C(c1ccc2c(c1)N(Cc1ccccc1F)C(=O)c1ccccc1S2)N1CCOCC1", "activity change, negative = inhibition": "inactive"}, {"molecule": "CN1C(=O)c2cc(NC(=O)c3cccc(F)c3)ccc2OC[C@@H]2O[C@@H](CC(=O)NCC3CCCCC3)CC[C@H]21", "activity change, negative = inhibition": "inactive"}, {"molecule": "CCOc1ccc2c(C)nc(NC3=NC(C)(C)C=C(C)N3)nc2c1", "activity change, negative = inhibition": "inactive"}, {"molecule": "O=c1[nH]c2cc(O)ccc2c2ccccc12", "activity change, negative = inhibition": "inactive"}, {"molecule": "COc1cc(/C=N/NC(=O)Cn2nnc3ccccc32)ccc1O", "activity change, negative = inhibition": "inactive"}, {"molecule": "O=C(NNc1ccc(-c2csnn2)cc1)c1ccccc1C(F)(F)F", "activity change, negative = inhibition": "inactive"}, {"molecule": "CC1(C)Cc2nc(Cl)c(C#N)cc2CO1", "activity change, negative = inhibition": "inactive"}, {"molecule": "Cc1cc(C)c(NS(=O)(=O)c2cccc3cccnc23)c(C)c1", "activity change, negative = inhibition": "inactive"}, {"molecule": "O=C(C[C@H]1CC[C@H]2[C@@H](COC[C@@H](O)CN2Cc2ccccc2)O1)NCCc1ccccc1", "activity change, negative = inhibition": "inactive"}, {"molecule": "CN1CCN(/N=C/c2c[nH]c3ccccc23)CC1", "activity change, negative = inhibition": "inactive"}, {"molecule": "O=C(Nc1nnc(-c2ccco2)o1)C1CC1", "activity change, negative = inhibition": "inactive"}, {"molecule": "Cn1c(=O)[nH]c(=O)c2c1[nH]c(=S)n2Cc1ccccc1", "activity change, negative = inhibition": "inactive"}, {"molecule": "COc1ccc(NC(=O)c2cc(C)nc3ccccc23)c(OC)c1", "activity change, negative = inhibition": "inactive"}, {"molecule": "CSc1cccc(NC(=O)CCc2ccccc2)c1", "activity change, negative = inhibition": "inactive"}, {"molecule": "CC(=O)Nc1ccccc1O", "activity change, negative = inhibition": "inactive"}, {"molecule": "O=C(N/N=C/c1ccc(O)c(O)c1)C1CC1", "activity change, negative = inhibition": "inactive"}, {"molecule": "COc1cc(C(=O)Nc2scc(-c3ccccc3)c2C(=O)O)cc(OC)c1OC", "activity change, negative = inhibition": "inactive"}, {"molecule": "O=C(CSc1nc2ccccc2[nH]1)NC1CCCc2ccccc21", "note": "(configuration not stated)", "activity change, negative = inhibition": "inactive"}, {"molecule": "COc1ccc(Cl)cc1NC(=O)Cn1c(NCCO)nc2ccccc21", "activity change, negative = inhibition": "inactive"}, {"molecule": "Cc1ccc(S(=O)(=O)Oc2cccc(/C=N/Nc3ccc(C(=O)O)cc3)c2)cc1", "activity change, negative = inhibition": "inactive"}, {"molecule": "CCOC(=O)c1c(C)[nH]c(C)c1C(=O)COC(=O)/C=C/c1ccco1", "activity change, negative = inhibition": "inactive"}, {"molecule": "COc1ccccc1/C=C/c1onc(C)c1S(=O)(=O)N1CCC(C(=O)NC(C)C)CC1", "activity change, negative = inhibition": "inactive"}, {"molecule": "O=C(NCc1nnc2c(C(F)(F)F)cc(Cl)cn12)c1cccnc1", "activity change, negative = inhibition": "inactive"}, {"molecule": "COc1cc(/C=N/N2C(=O)C3C4C=CC(CC4)C3C2=O)ccc1O", "note": "(configuration not stated)", "activity change, negative = inhibition": "inactive"}, {"molecule": "Fc1ccc(/C=C\\c2nccc3c2[nH]c2ccccc23)cc1", "activity change, negative = inhibition": "inactive"}, {"molecule": "Cc1noc(/C=C/c2ccccc2F)c1S(=O)(=O)N1CCC(C(=O)N2CCN(C)CC2)CC1", "activity change, negative = inhibition": "inactive"}, {"molecule": "COc1ccc(-c2ccc3c(c2)[C@H]2[C@H](CCN2C(=O)CN2CCOCC2)[C@@H](CO)N3)cc1", "activity change, negative = inhibition": "inactive"}, {"molecule": "COC(=O)C(Cc1ccccc1)NC(=O)CSc1nc(C)cc(=O)[nH]1", "note": "(configuration not stated)", "activity change, negative = inhibition": "inactive"}, {"molecule": "CCOC(=O)c1nnn(-c2nonc2N)c1-c1ccc(F)cc1", "activity change, negative = inhibition": "inactive"}, {"molecule": "COCCN(C(=O)C(C)C)c1nnc(-c2ccc(C(C)(C)C)cc2)s1", "activity change, negative = inhibition": "inactive"}, {"molecule": "Cc1ccc(Oc2c(CO)c(-c3ccccc3)nn2C)cc1", "activity change, negative = inhibition": "inactive"}, {"molecule": "COc1cc2nncc(SC)c2cc1OC", "activity change, negative = inhibition": "inactive"}, {"molecule": "COc1ccc(NC(c2ccccc2)c2ccncc2)cc1", "note": "(configuration not stated)", "activity change, negative = inhibition": "inactive"}, {"molecule": "CCC(=O)Nc1ccc2c(c1)OC[C@H](C)N(C(=O)NC(C)C)C[C@@H](C)[C@@H](OC)CN(C)C2=O", "activity change, negative = inhibition": "inactive"}, {"molecule": "COc1ccc(C(=O)Nc2ccccc2C(=O)O)cc1Cl", "activity change, negative = inhibition": "inactive"}, {"molecule": "COc1cc(/C=N/NC(=O)c2nnn(-c3nonc3N)c2C(C)C)ccc1O", "activity change, negative = inhibition": "inactive"}, {"molecule": "O=C(N[C@@H](Cc1c[nH]c2ccccc12)C(=O)O)C1CCN(S(=O)(=O)c2cccs2)CC1", "activity change, negative = inhibition": "inactive"}, {"molecule": "CCc1ccccc1NC(=O)CN1CCN(CC(=O)NCc2ccc(Cl)cc2)CC1", "activity change, negative = inhibition": "inactive"}, {"molecule": "C=CCNS(=O)(=O)c1nc(C)c(Cl)c(C)c1C#N", "activity change, negative = inhibition": "inactive"}, {"molecule": "Cc1ccc(C2=NS(=O)(=O)N(C)C(C(=O)NCc3cccs3)=C2)cc1", "activity change, negative = inhibition": "inactive"}, {"molecule": "Cc1ccc2c(c1)-c1c(cnn1CC(=O)NC(C)CCc1ccco1)CO2", "note": "(configuration not stated)", "activity change, negative = inhibition": "inactive"}, {"molecule": "CCN(CC)C(=O)C1CCN(S(=O)(=O)c2c(C)noc2/C=C/c2cccc(C)c2)CC1", "activity change, negative = inhibition": "inactive"}, {"molecule": "C=CCN=c1scc(C)n1/N=C/c1ccc(O)c(O)c1", "activity change, negative = inhibition": "inactive"}, {"molecule": "O=C(CC(c1ccccc1)c1ccccc1)Nc1ccc(O)cc1", "activity change, negative = inhibition": "inactive"}, {"molecule": "S=c1[nH]nc(NC2CCCCC2)s1", "activity change, negative = inhibition": "inactive"}, {"molecule": "CCCc1cc(-c2n[nH]c(C(=O)OCC)c2-c2cscn2)c(O)cc1O", "activity change, negative = inhibition": "inactive"}, {"molecule": "Clc1cccc(-c2ccc3ncnc(NCc4cccs4)c3c2)c1", "activity change, negative = inhibition": "inactive"}, {"molecule": "O=C(C1CCOCC1)N1CC[C@@H]2[C@@H](CO)Nc3ccc(-c4ccc(F)cc4)cc3[C@@H]21", "activity change, negative = inhibition": "inactive"}, {"molecule": "C[C@@H]1CN([C@H](C)CO)C(=O)c2cccc(N(C)C)c2O[C@@H]1CN(C)C(=O)Nc1ccc(C(F)(F)F)cc1", "activity change, negative = inhibition": "inactive"}, {"molecule": "COc1cc(/C=N/NC(=O)CSc2ccccn2)ccc1O", "activity change, negative = inhibition": "inactive"}, {"molecule": "Cc1cc(SCC(=O)N/N=C/c2ccco2)nc2ccccc12", "activity change, negative = inhibition": "inactive"}, {"molecule": "Cn1c(=O)[nH]c(=O)c2c1[nH]c(=S)n2Cc1ccc(Cl)cc1", "activity change, negative = inhibition": "inactive"}, {"molecule": "COc1cc(OC)cc(C(=O)NNC(=O)CN2C(=O)NC(C)(c3ccc(C)cc3)C2=O)c1", "note": "(configuration not stated)", "activity change, negative = inhibition": "inactive"}, {"molecule": "COc1cc2ccccc2cc1C(=O)N/N=C/c1cccs1", "activity change, negative = inhibition": "inactive"}, {"molecule": "c1ccc2[nH]c(-c3ccc4c(c3)OCO4)nc2c1", "activity change, negative = inhibition": "inactive"}, {"molecule": "Cc1ccc(NNC(=O)C2CCC2)cc1C", "activity change, negative = inhibition": "inactive"}, {"molecule": "O=C(Cc1ccccn1)c1ccncc1", "activity change, negative = inhibition": "inactive"}, {"molecule": "CC(=O)Nc1ccc(NC(=O)Cc2ccc(S(=O)(=O)N3CCCCC3)cc2)cc1", "activity change, negative = inhibition": "inactive"}, {"molecule": "c1ccc(SCc2nc3ccccc3s2)nc1", "activity change, negative = inhibition": "inactive"}, {"molecule": "O=c1c([N+](=O)[O-])cccn1Cc1ccc(F)cc1Cl", "activity change, negative = inhibition": "inactive"}, {"molecule": "CCC(=O)Nc1ccc2c(c1)OC[C@H](C)N(C(=O)NC(C)C)C[C@H](C)[C@H](OC)CN(C)C2=O", "activity change, negative = inhibition": "inactive"}, {"molecule": "COc1cccc(C(=O)C2CCCN(Cc3ccc(F)cc3)C2)c1", "note": "(configuration not stated)", "activity change, negative = inhibition": "inactive"}, {"molecule": "O=[N+]([O-])c1cc(Br)ccc1NS(=O)(=O)c1ccccc1", "activity change, negative = inhibition": "inactive"}, {"molecule": "O=C(N/C(=C\\c1ccc(O)cc1)C(=O)N1CCCCC1)c1ccccc1", "activity change, negative = inhibition": "inactive"}, {"molecule": "Nc1ccc2c(c1)Nc1ccccc1CC2", "activity change, negative = inhibition": "inactive"}]}, {"target": "Toxin B (TcdB) glycohydrolase, Clostridioides difficile 630", "assay": "TcdB glycohydrolase inhibitors, dose response, biochemical, cherry-pick, plate reader (AID 720512)", "details": "recombinant TcdB glycohydrolase activity, at 21 µM (top of the series)", "values": [{"molecule": "CC(=O)N1CC[C@@H]2[C@@H](CO)Nc3ccc(-c4ccccc4)cc3[C@@H]21", "activity change, negative = inhibition": "inactive"}]}]}
